Assay results as given in ChEMBL document CHEMBL1147469, “Design and synthesis of de novo cytotoxic alkaloids through mimicking taxoid skeleton” (Bioorg Med Chem Lett, 2004).

Tests used:
Format in all cases: functional, cell-based
[1] = tested on: MCF7R; experiment: In vitro cytotoxic activity against growth of MDR phenotype human breast carcinoma cell line (MCF-7-R) after 72 hr
[2] = tested on: MCF7S; experiment: In vitro cytotoxic activity against growth of human breast carcinoma cell line (MCF-7-S) after 72 hr
[3] = tested on: MDA-MB-435; experiment: In vitro cytotoxic activity against growth of human breast carcinoma cell line (LCC6-WT) after 72 hr; conditions: MDA-MB-435, 72 h
[4] = tested on: MDA-MB-435; experiment: In vitro cytotoxic activity against growth of MDR1 transduced line (LCC6-MDR) after 72 hr; conditions: Homo sapiens, MDA-MB-435, 72 h

Row | Compound | IC50 ([1]; Homo sapiens, MCF7R, 72 h) [µM] | IC50 ([2]; Homo sapiens, MCF7S, 72 h) [µM] | IC50 [3] [µM] | IC50 [4] [µM] | IC50 ([1]; mcf7r) [µM] | IC50 ([2]; mcf7s) [µM]
1 | CC(C)C[C@@H]1NC(=O)OCCCc2cccc(c2)C(=O)O[C@H]2C=CC(=O)N3C[C@H](C[C@H]23)OC(=O)[C@@H]1O | > 20 | > 20 | > 20 | > 20 |  | 
2 | COc1cccc(C(=O)O[C@H]2CCC(=O)N3C[C@@H](OC(=O)[C@H](O)[C@H](CC(C)C)NC(=O)OC(C)(C)C)C[C@H]23)c1 | > 20 | 14 | > 20 | > 20 |  | 
3 | CC(=O)O[C@H]1C(=O)[C@@]2(C)[C@H]([C@H](OC(=O)c3ccccc3)[C@]3(O)C[C@H](OC(=O)[C@H](O)[C@@H](NC(=O)c4ccccc4)c4ccccc4)C(C)=C1C3(C)C)[C@]1(OC(C)=O)CO[C@@H]1C[C@@H]2O [PACLITAXEL] | 1.19 | 0.002 | 0.004 | 0.379 |  | 
4 | CISPLATIN |  |  |  |  | 3.53 | 3.97
